From patent US10618869B2, “Oligo-benzamide compounds and their use” (The Board of Regents of the University of Texas System, priority 2010, dated 2020)
“Also recorded” adds a separate entry of the source.

Tests used:
[1] = Storage stability of D2 in DMSO; assay type: physicochemical; details: room temperature and −70° C., storage 60 days
[2] = molecular target: T1, interaction between AR and hsp90 (Homo sapiens, UniProt P10275); assay: AR-hsp90 interaction (co-immunoprecipitation); assay type: cell-based; details: hsp90 lacks a LXXLL motif
T1 construct: endogenous in cells; host or cells: prostate cancer cells
T1 sequence (P10275 1-920): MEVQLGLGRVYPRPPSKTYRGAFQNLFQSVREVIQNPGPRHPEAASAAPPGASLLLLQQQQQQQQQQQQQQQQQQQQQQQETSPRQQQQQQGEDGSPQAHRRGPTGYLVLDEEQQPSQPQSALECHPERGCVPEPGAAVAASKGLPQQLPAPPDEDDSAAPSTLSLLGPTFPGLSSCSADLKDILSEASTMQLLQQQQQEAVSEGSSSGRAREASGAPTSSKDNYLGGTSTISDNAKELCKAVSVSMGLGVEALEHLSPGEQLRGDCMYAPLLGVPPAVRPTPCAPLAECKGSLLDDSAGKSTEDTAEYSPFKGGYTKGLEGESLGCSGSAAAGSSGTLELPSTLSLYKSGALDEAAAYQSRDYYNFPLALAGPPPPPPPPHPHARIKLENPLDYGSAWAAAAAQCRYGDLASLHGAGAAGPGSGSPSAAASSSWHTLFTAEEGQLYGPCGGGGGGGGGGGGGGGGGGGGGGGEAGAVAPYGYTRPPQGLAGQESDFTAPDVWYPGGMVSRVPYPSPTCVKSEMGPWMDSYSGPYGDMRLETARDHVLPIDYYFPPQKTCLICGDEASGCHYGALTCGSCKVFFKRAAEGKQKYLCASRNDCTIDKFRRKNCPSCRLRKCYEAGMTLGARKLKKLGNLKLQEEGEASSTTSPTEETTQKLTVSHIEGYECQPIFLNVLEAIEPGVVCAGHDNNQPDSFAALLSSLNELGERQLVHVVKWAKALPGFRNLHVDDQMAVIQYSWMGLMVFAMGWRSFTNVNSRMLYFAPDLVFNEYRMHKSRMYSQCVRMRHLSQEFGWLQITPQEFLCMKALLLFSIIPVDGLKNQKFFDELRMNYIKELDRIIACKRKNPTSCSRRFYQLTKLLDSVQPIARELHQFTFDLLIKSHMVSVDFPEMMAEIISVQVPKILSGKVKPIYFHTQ

PSA-luciferase promoter = assay: DHT-induced transcription from PSA-luciferase promoter; assay type: cell-based; details: LAPC4 cells
Text: FIG. 9. […] This effect of D2 could be rescued by overexpression of AR (bottom left panel) or PELP1 (bottom right panel).
(§1) At the protein level, D2, but not D1, was able to block DHT-induced expression of PSA protein. Again, the suppresion of DHT-induced transcription from an ARE could be overcome by overexpression of either AR or PELP1 ([…]). Overexpression of PELP1 was able to rescue the D2-mediated suppression of DHT-induced transcription nearly back to baseline.

PSA protein = assay: DHT-induced PSA protein expression (western blot); assay type: cell-based; details: protein level
Text: FIG. 8 confirms these findings by QPCR experiment evaluating the effect of D1 and D2 on DHT-induced TMPRSS and PSA gene expression at the RNA level in LNCaP cells (bottom left panel) and by western blot analyses as evaluated by the effect of D1 and D2 on the expression of PSA, androgen receptor and actin in LAPC4 cells at the protein level. […] Confirmation of these findings were obtained by QPCR and western blot analyses.
as §1

[3] = test system: PCa cell lines that contain AR; assay: DHT-induced proliferation of prostate cancer cells (MTT assay); assay type: cell-based
Description: (§2) FIGS. 10A-E. D2 blocks proliferation of prostate cancer cells in vitro and in vivo (a) Effect of pretreatment with 100 nM of D1 and D2 on DHT-induced proliferation in multiple prostate cancer cell lines in MTT assay. Numbers are normalized to a baseline of 100, which represents the untreated rate of proliferation. (b) Effect of pretreatment with 100 nM of D1 and D2 on DHT-induced proliferation in LNCaPcells on a Cyquant assay. (c) Dose dependent curve of D2 on proliferation of LAPC4 cells. (d) Rescue of DHT induced proliferation by overexpression of PELP1 following suppression of DHT induced proliferation with 100 nM of D2. (e). Effect of direct intratumoral injections of D1 and D2 on the proliferation of prostate cancer xenografts in animal models: Following establishment of subcutaneous xenografts in animal models, daily direct intratumoral injections of D1 and D2 were performed. Bioluminesence imaging was used to track the growth of the tumors and the effect of D1 and D2 quantitated as shown in the graph.
(§3) The importance of PELP1 and AR interaction on DHT-mediated proliferation of prostate cancer cells were confirmed using rescue experiments, where D2 suppression of DHT-mediated proliferation was overcome by overexpression of PELP1 in LNCaP PCa cells.
(§4) In this experiment, cells were plated (2-10×10^3/well) in 96 well plates and subjected to androgen deprivation for 48 hours with phenol-red free RPMI and 1% charcoal stripped fetal bovine serum (CSF). Cells were then treated with either ethanol, EGF or DHT as a positive control for 48 hours. Peptidomimetics were added 2 hours prior to treatment. Cell proliferation was measured using the MTT colorimetric assay.
Cells were plated (2-10×10^3/well) in 96-well plates and subjected to androgen deprivation for 48 hours with phenol-red free RPMI and 1% charcoal stripped fetal bovine serum (CSF). Cells were then treated with either ethanol or DHT as a positive control for 48 hours Peptidomimetics were added 2 hours prior to treatment. Cell proliferation was measured using the MTT colorimetric assay.

[4] = test system: AR-negative PCa cell lines such as DU145 or PC3; assay: DHT-induced proliferation of AR-negative PCa cell lines; assay type: cell-based
Description: as §2, §3

PCa cells = assay: EGF or LPA-induced proliferation of PCa cells (MTT assay); assay type: cell-based; details: peptidomimetic added 2 hours prior
Description: FIG. 11. […] D2 does block DHT-induced proliferation of prostate cancer cells.
as §4

AR nuclear translocation = assay: DHT-induced nuclear translocation of AR in LNCaP cells; assay type: cell-based
Description: FIGS. 13A-B. Effect on DHT-induced nuclear translocation of exogenous AR-GFP in LNCaP cells transiently transfected with AR. (a) Blue stain is DAPI (for nucleus) and green is AR (GFP). Baseline untreated LNCaP cells are shown in top left panel. Cells were pretreated with DMSO (left panel), 100 nM D1 (middle panel) and 100 nM D2 (right panel) and then treated with 1 nM DHT. AR nuclear translocation was visualized at 4 hours following DHT treatment. (b) Nuclear and cytoplasmic extracts were collected from similar cells and subject to western analyses.
FIG. 13 shos that pretreatment with D2 blocked DHT-induced translocation of AR-GFP to the nucleus in LnCaP cells compared to the control D1 or DMSO.

Q: What does the source list for COC(=O)c1ccc(NC(=O)c2ccc([N+](=O)[O-])c(OCC(C)C)c2)c(OCC(C)C)c1 [D2]?
A: stability in DMSO [1]: stable in DMSO; interaction between AR and hsp90 [2]: not able to affect; DHT-induced transcription from PSA-luciferase promoter (PSA-luciferase promoter): able to block; also recorded: block DHT-Induced gene expression; DHT-induced expression of PSA protein (PSA protein): able to block; activity on the proliferation of prostate cancer cells (FIGS. 17, 19A-N) ([3]; DHT-induced proliferation, MTT assay, structure-function series): good activity; DHT-induced proliferation of PCa cells ([3]; LNCaP, LAPC4, C4-2, RWPE-1, CWR22v1, VCaP, MDAPCa 2b, pretreatment (100 nM in FIG. 10)): prevented; also recorded: does block; IC50 ([3]; MTT assays, in vitro, read-out: IC50, DHT-mediated proliferation of PCa cells): ~40 nM; DHT-induced proliferation of AR-negative PCa cell lines [4]: but not AR-negative PCa cell lines; EGF or LPA-induced proliferation of PCa cells (PCa cells): no effect; also recorded: does not affect; DHT-induced translocation of AR-GFP to the nucleus (imaging) (AR nuclear translocation; 100 nM pretreatment, 1 nM DHT, 4 hours): blocked; AR nuclear translocation (nuclear and cytoplasmic extracts) (AR nuclear translocation; upon addition of DHT): prevents AR nuclear translocation
